Data set [1] is described as follows: Polarized light microscopy of drug suspended in buffers with or without sodium chloride. It is filed as physicochemical. The following applies: in the presence of chloride ion. As for the experimental part:
The common ion effect was studied using dissolution and microscopic methods. The microscopic method was conducted with drug suspended in water, pH 1.2, pH 4 and pH 6.5 buffers with and without sodium chloride. The dissolution of the drug and its granulations were studied using three different 2-step dissolution methods which entails the following: Method #1: simple 2-step buffers at pH 4 from 0-30 minutes and at pH 6.5 from 30-90 minutes. Method #2: simple 2-step buffers with the presence of chloride ion in both steps. Method #3: simple buffer at pH 4 with presence of chloride ion from 0-30 minutes; and buffer with bile salts and surfactants at pH 6.5 from 30-90 minutes. The two steps represent fed stomach and intestinal conditions, respectively.
Formulation Preparation Bulk drug powders were wet granulated with and without excipients. Granules were dried and sized through a #18 mesh screen. Polarized Microscopic Observation Microscopic test was conducted with drug suspended in water, pH 1.2, 4, and 6.5 buffers with and without sodium chloride. Dissolution Test: Four dissolution media were tested. Results of these tests are shown in line-graph formats in FIGS. 3-7. Bulk drug powders were wet granulated with and without excipients. […]
An in-vivo dog study was conducted with beagle dogs (wt=12 kg, n=3). […] Serial of plasma samples were collected, extracted, and analyzed by LC/MS/MS. […]

A short description of data set [2]: pKa of model compound. It is filed as physicochemical.
A short description of data set [3]: Caco-2 permeability. It is filed as in vitro ADME. The settings on record: human.
The nature of data set [4]: Monkey oral bioavailability. The following applies: in vivo, at 20 mg/kg dose.
The nature of data set [5]: Solubility. It is filed as physicochemical.
A short description of data set [6]: Food effect. The settings on record: in vivo.
The nature of data set [7]: log P of model compound. It is filed as physicochemical.

≈ marks a conversion by molar mass, not a printed value. Read-outs that look alike come from different tables or passages of the source.

The pKa is the negative logarithm of the acid dissociation constant. One may read the Papp as a coefficient for how fast a substance crosses the barrier. In general, bioavailability refers to the share of a dose that reaches the circulation, judged against a reference dose that is usually intravenous. The term solubility denotes how much of the substance goes into solution per volume. Broadly, the logP is a log measure of how a compound divides between an organic and an aqueous phase.

For `CC(=O)NC[C@H]1CN(c2ccc(-c3ccc(CNCc4cnn[nH]4)cc3)c(F)c2)C(=O)O1` [model compound, N-[3-(2-fluoro-4′-{[(3H-[1,2,3]triazol-4-ylmethyl)-amino]-methyl}-biphenyl-4-yl)-2-oxo-oxazolidin-5-(S)-ylmethyl]-acetamide], in data set [1], the “microscopic observation of aggregates” value was “formed aggregates in the presence of chloride ion”. This molecule registered a pKa in data set [2] of 6.8. This molecule showed a Papp in data set [3] of 0.5 ×10⁻⁶ cm/s. In data set [4], the bioavailability stood at 15%. The solubility in data set [5] (at pH 6.8, read-out: Intrinsic solubility) is 10 µg/mL (≈ 22.8 µM); in data set [5] (water, pH 4, water, read-out: Solubility of salt in water), 2600 µg/mL; in data set [5] (water, pH 5.4, water, read-out: Solubility of salt in water), 200 µg/mL; in data set [5] (water, pH 6.5, water, read-out: Solubility of salt in water) it was 60 µg/mL. In data set [6], the Positive food effect worked out at 4 ×. This molecule also showed a log partition coefficient (logP) in data set [7] of 0.7.

Source of the values: patent publication US9409896B2, “Sustained release pharmaceutical compositions comprising an antibacterial agent” (Melinta Therapeutics, Inc., priority 2010, dated 2016).
